In patent US20040242568A1, “Dipeptidyl peptidase inhibitors” (Syrrx, Inc., priority 2003, published 2004):

Assay: Microsomal stability in rat liver microsomes
Settings: Rat liver microsomes 1 mg/mL protein, 1 μM compound, 37° C., NADPH 4 mM
Procedure: Several compounds were evaluated for stability in rat liver microsomes.
The test compounds (1 μM) were incubated at 37° C. in phosphate buffer (50 mM, pH 7.4) containing rat liver microsomes (1 mg/mL protein) and NADPH (Nicotinamide Adenine Dinucleotide Phosphate, reduced form) (4 mM). The incubation mixtures were quenched with trichloroacetic acid (0.3 M) over 0, 5, 15, 30 min time-course. Quenched solutions were centrifuged and supernatants were transferred for LC/MS quantitation. The half life of a test compounds was derived from the compound stability curve over the time course.

Row | T1/2 | SMILES
1 | 2.5 min | N#Cc1ccccc1Cn1c(N2CCCC(N)C2)nc2ccccc2c1=O (stereo not drawn) [Example 1, 2-[2-(3-Amino-piperidin-1-yl)-4-oxo-4H-quinazolin-3-ylmethyl]-benzonitrile]
2 | 31 min | N#Cc1ccccc1Cn1c(N2CCCC(N)C2)nc2ccc(F)cc2c1=O (stereo not drawn) [Example 6, 2-[2-(3-Amino-piperidin-1-yl)-6-fluoro-4-oxo-4H-quinazolin-3-ylmethyl]-benzonitrile]
3 | 106.6 min | COc1cc2nc(N3CCCC(N)C3)n(Cc3ccccc3C#N)c(=O)c2cc1OC (stereo not drawn) [Example 2, 2-[2-(3-Amino-piperidin-1-yl)-6,7-dimethoxy-4-oxo-4H-quinazolin-3-ylmethyl]-benzonitrile]
